{"source": "patent EP0567205A1", "about": "“Use of opiate antagonists in the manufacture of agents for the diagnosis and therapy of hypothalamic function disorders” (Ferring Arzneimittel GmbH, priority 1986, dated 1988)", "key": {"[1]": {"tested_on": "Patientinnen, die an hypothalamischer Amenorrhoe litten", "assay": "Naltrexon administration to patients with hypothalamic amenorrhea (serial blood sampling for LH, FSH, prolactin and ovarian steroids; ultrasound)", "assay_type": "in vivo", "excerpt": "Im Rahmen der vorliegenden Erfindung wurden Untersuchungen an Patientinnen mit hypothalamischer Amenorrhoe durchgeführt. Diese Untersuchungen haben überraschenderweise gezeigt, daß durch die Gabe des Opiat-Antagonisten Naltrexon eine Zunahme von Frequenz und Amplitude der LH und FSH Sekretion erreicht wird. Es kann daher davon ausgegangen werden, daß die endogene GnRH Sekretion durch den Opiat-Antagonisten vermehrt wird.\nDie basale Gonadotropin Sekretion von Patientinnen, die an hypothalamischer Amenorrhoe litten, wurde durch Bestimmung von LH und FSH, Prolactin und Ovarien-Steroiden in ßlutproben bewertet, die alle zehn Minuten während 24 Stunden entnommen wurden. Naltrexon wurde dann in einer Dosis von 50 mg pro Tag während 24 oder 28 Tagen verabreicht. 5 Tage und 14 Tage nach dem Beginn der Naltrexonverabreichung wurden wiederholte Blutproben entnommen. An den übrigen Tagen wurden täglich Blutproben entnommen und es wurde eine Ultraschalluntersuchung nach der Naltrexonverabreichung sowie einige Tage danach durchgeführt. Es wurden folgende Ergebnisse ermittelt:\nAuf die Verabreichung von Naltrexon folgte eine Zunahme der Frequenz und der Amplitude der pulsatielen Gonadotropin Sekretion sowie eine Zunahme der mittleren LH und FSH Serumkonzentration sowie der Entwicklung der Gonaden-Steroid Sekretion und der Follikel, was durch Ultraschall festgestellt wurde."}, "[2]": {"conditions": "general statement on the known drug; oral administration possible; cited from earlier work"}, "[3]": {"conditions": "hypothalamic amenorrhea, 50 mg pro Tag während 24 oder 28 Tagen"}, "[4]": {"conditions": "patients with hypothalamic amenorrhea, summary statement"}}, "note": "Entries after “also recorded” stand apart in the source; their conditions may differ.", "data": [{"smiles": "O=C1CC[C@@]2(O)[C@H]3Cc4ccc(O)c5c4[C@@]2(CCN3CC2CC2)C1O5", "note": "(stereo partly drawn) [Naltrexon, 17-(Cyclopropylmethyl)-4,5-epoxy-3,14-dihydroxymorphinan-6-on]", "values": [{"measurement": "Entwicklung der Follikel", "setting": "[1]; by ultrasound, hypothalamic amenorrhea, 50 mg pro Tag während 24 oder 28 Tagen", "result": "Zunahme"}, {"measurement": "Amplitude der pulsatielen Gonadotropin Sekretion", "setting": "[1]; [3]", "result": "Zunahme"}, {"measurement": "Entwicklung der Gonaden-Steroid Sekretion", "setting": "[1]; [3]", "result": "Zunahme"}, {"measurement": "Frequenz der pulsatielen Gonadotropin Sekretion", "setting": "[1]; [3]", "result": "Zunahme"}, {"measurement": "mittlere FSH Serumkonzentration", "setting": "[1]; [3]", "result": "Zunahme"}, {"measurement": "mittlere LH Serumkonzentration", "setting": "[1]; [3]", "result": "Zunahme"}, {"measurement": "Menstruation nach Absetzen des Mittels", "setting": "[1]; patients who menstruated after withdrawal, hypothalamic amenorrhea, 50 mg pro Tag während 24 oder 28 Tagen", "result": "Sämtliche Patientinnen menstruierten"}, {"measurement": "Ovulation", "setting": "[1]; patients who ovulated, hypothalamic amenorrhea, 50 mg pro Tag während 24 oder 28 Tagen", "result": "führte zur Normalisierung der Gonadotropin-Sekretion, zur Ovulation; also recorded: Eine von 3 Patientinnen ovulierte"}, {"measurement": "Bildung eines Corpus luteum", "setting": "[1]; [4]", "result": "zur Bildung eines Corpus luteum"}, {"measurement": "Gonadotropin-Sekretion", "setting": "[1]; [4]", "result": "Normalisierung"}, {"measurement": "menstrueller Zyklus", "setting": "[1]; [4]", "result": "Normalisierung"}, {"measurement": "Verweildauer im Plasma", "setting": "[2]", "result": "lange"}]}]}
